Test results reported in patent US20120101057A1, “COMBINED THERAPY OF COLORECTAL CARCINOMA” (INSTYTUT FARMACEUTYCZNY, priority 2009, published 2012).

Columns and labels:
[1] = tested on: murine colorectal cancer C38; assay: tumour growth in mice with colorectal cancer C38 treated with 5-fluorouracil (1a); type: in vivo, Mice of C57BL/6 strain; conditions: for TGI / Tumours MEAN ± SD: C38, 28 day of experiment; for Tumours MEAN ± SD: 5-FU 150 mg/kg i.p., PRI-2191 2 ug/kg s.c., PRI-2205 10 μg/kg s.c.; for volume of tumours C38 in comparison with control: single agent; for volume of tumours C38, combination with 5-FU in comparison with 5-FU: analogue combined with 5-FU
[2] = tested on: colorectal cancer HT-29; assay: tumour growth in mice with colorectal cancer HT-29 treated with 5-fluorouracil; type: in vivo; conditions: for TGI / Tumours MEAN ± SD: HT-29, 49 day of experiment; for HT-29 tumour mass in comparison with control: single agent; for HT-29 tumour mass, combination with 5-FU in comparison with 5-FU alone / type of interaction in inhibition of HT-29 tumour growth: analogue combined with 5-FU
[3] = tested on: murine colorectal cancer C38; assay: survival time and tumour growth in mice with colorectal cancer C38 treated with 5-FU (1b); type: in vivo; conditions: for ILS %: 5-FU 75 mg/kg i.p. day 1, PRI-2191 2, PRI-2205 10 μg/kg/day 3 times per week; for TGI (d20) %: day 20; for C38 tumour mass in comparison with control: single agent; for C38 tumour mass, combination with 5-FU in comparison with 5-FU: analogue combined with 5-FU
Experimental: Mice with colorectal cancer C38 were treated with 5-FU given in a single administration, intraperitoneally on day 1 at a dose of 75 mg/kg.

[4] = tested on: MC38/0; assay: antiproliferative activity of 5-fluorouracil combined with vitamin D analogues in vitro, 120 h; type: cell-based, mouse; design: key: +: sub-additive effect; ++: additive effect; +++: synergistic effect; −: antagonism; conditions: 120-hours exposure
Experimental: After 24 h culture, the cells of large intestine carcinoma were treated simultaneously with calcitriol or vitamin D analogues and 5-fluorouracil for 120 hours. […] Statistical analysis of the obtained results of inhibition of proliferation was carried out by analysis of percent of inhibition of proliferation in individual combinations of compounds.
(§1) Hypothetical value was calculated according to a formula: […]
(§2) wherein: % H—hypothetical inhibition of proliferation by combination of compounds [Vo]; % cyt—inhibition of proliferation by 5-Fu alone [%]; % vit—inhibition of proliferation by calcitriol or cholecalciferol analogue alone [%];
(§3) Additive effect occurs when the experimental and hypothetical value are similar, sub-additive effect occurs when experimental value is lower than hypothetical value but above value for a cytostatic alone, and antagonistic action—when a value determined for a cytostatic used alone is above experimental value for combination of both compounds. [Peters G. J. i wsp.: Pharmacol Ther 2000, 87, 227-253]

[5] = tested on: CaCo-2; assay: as above; type: cell-based, human; design: key to Type of reaction between vitamin D analogues and 5-fluorouracil: +: sub-additive effect; ++: additive effect; +++: synergistic effect; −: antagonism; conditions: for Type of reaction between vitamin D analogues and 5-fluorouracil: CaCo-2, analogue 100 nM + 5-fluorouracil 1 μg/ml, 120-hours exposure
Experimental: (§4) After 24 h culture, the cells of large intestine carcinoma were treated simultaneously with calcitriol or vitamin D analogues and 5-fluorouracil for 120 hours. The final concentration of vitamin D analogues was 100 nM, and of 5-fluorouracil—-1 μg/ml or 0.1 μg/ml. Statistical analysis of the obtained results of inhibition of proliferation was carried out by analysis of percent of inhibition of proliferation in individual combinations of compounds.
as §1, §2, §3

[6] = tested on: HT-29; assay: as above; type: cell-based, human; design: key: +: sub-additive effect; ++: additive effect; +++: synergistic effect; −: antagonism; conditions: analogue 100 nM + 5-fluorouracil 0.1 μg/ml, 120-hours exposure
Experimental: as §4, §1, §2, §3

[7] = tested on: LoVo; assay: as above; type: cell-based, human; design: key: +: sub-additive effect; ++: additive effect; +++: synergistic effect; −: antagonism; conditions: analogue 100 nM + 5-fluorouracil 1 μg/ml, 120-hours exposure
Experimental: as §4, §1, §2, §3

[8] = tested on: murine colorectal carcinoma C38; assay: tumour growth in mice with murine colorectal carcinoma C38 treated with capecitabine; type: in vivo, Mice of C57BL/6 strain; conditions: for TGI / Tumours MEAN ± SD: C38; for tumour C38 mass in comparison with control: single agent; for tumour mass, combination with capecitabine in comparison with capecitabine alone / type of interaction in inhibition of tumour growth with capecitabine: analogue combined with capecitabine
[9] = body mass of mice under combined therapy; type: in vivo; conditions: combination with 5-FU
[10] = calcium level in blood serum of mice treated with 5-FU and vitamin D analogues; type: in vivo, Mice of BALB/c strain; conditions: BALB/c; 5-FU 50 mg/kg i.p. day 1; PRI-2191 2 or PRI-2205 10 μg/kg/day 3 times a week
Experimental: Mice of BALB/c strain were treated with 5-FU given in a single administration, intraperitoneally on day 1 at a dose of 50 mg/kg. […] Calcium level was evaluated (Arsezano 3 method, Olympus AU400; Olympus America Inc., Melville, NY, USA) in blood serum of treated and control mice.

[11] = tested on: murine colorectal cancer MC38/EGFP; assay: burden of metastases in regional lymph nodes, MC38/EGFP fluorescence (1c); type: in vivo, mice; conditions: for metastases in regional lymph nodes (intensity of fluorescence), combined treatment with 5-FU: 5-FU 75 mg/kg i.p. with PRI-2191 1 μg/kg or PRI-2205 10 μg/kg s.c., day 59; for metastases in regional lymph nodes (fluorescence) versus control mice: analogue only, day 50
Source text: Cancer cells of murine colorectal cancer MC38/EGFP (cells expressing a protein of green fluorescence) were implanted subcutaneously in an amount of 1×10^6 cells/mouse. […] Compounds were given subcutaneously, 3 times a week. […] Then on day 59 of experiment, lymph nodes from mice of remaining were taken for analysis. Using NightOWL II LB 983 apparatus, photographs of isolated lymph nodes were taken in order to visualize cancer cells in sites of metastases.
Intensity of the measured fluorescence is related to a burden of metastases (the number of cells with fluorescence).

[12] = rats; cited from earlier work
[13] = MC38/0, analogue 100 nM + 5-fluorouracil 0.1 μg/ml
[14] = analogue 100 nM + 5-fluorouracil 0.01 μg/ml, cell line of this column unclear (MC38/0 or CaCo-2)
[15] = 18 day of experiment, KCY 250 mg/kg/day oral, PRI-2191 1, PRI-2205 10 μg/kg/day s.c.

SMILES	TGI [1] [%]	Tumours MEAN ± SD [1] [g]	volume of tumours C38 in comparison with control [1]	TGI [2] [%]	Tumours MEAN ± SD [2] [g]	HT-29 tumour mass in comparison with control [2]	ILS % ([3]; C38) [%]	TGI (d20) % ([3]; C38) [%]	C38 tumour mass in comparison with control [3]	Type of reaction between vitamin D analogues and 5-fluorouracil [4, 13]	Type of reaction between vitamin D analogues and 5-fluorouracil [4, 14]	Type of reaction between vitamin D analogues and 5-fluorouracil [5]	Type of reaction between vitamin D analogues and 5-fluorouracil [6]	Type of reaction between vitamin D analogues and 5-fluorouracil [7]	Tumours MEAN ± SD [8, 15] [g]	tumour C38 mass in comparison with control [8]	volume of tumours C38, combination with 5-FU in comparison with 5-FU [1]	tumour mass, combination with capecitabine in comparison with capecitabine alone [8]	type of interaction in inhibition of tumour growth with capecitabine [8]	HT-29 tumour mass, combination with 5-FU in comparison with 5-FU alone [2]	also measured
O=c1[nH]cc(F)c(=O)[nH]1 [5-FU, 5-fluorouracil]	84	0.19 ± 0.19	decreases in statistically significant manner volume of tumours C38 in comparison with control	47	1.23 ± 0.30	decreases in a statistically significant manner HT-29 tumour in comparison with control	21	64	decreases in a statistically significant manner C38 tumour mass in comparison with control												
C=C1/C(=C\C=C2/CCC[C@]3(C)[C@@H]([C@H](C)CCCC(C)(C)O)CC[C@@H]23)C[C@@H](O)C[C@@H]1O [CALCITRIOL, 1,25-dihydroxycholekalciferol]										+++	+++	−	+++	+++							interaction with 5-fluorouracil ([5]; Caco-2 cell line, 120-hour exposure): antagonism
CCCCCOC(=O)Nc1nc(=O)n([C@@H]2O[C@H](C)[C@@H](O)[C@H]2O)cc1F [KCY, capecitabine]															0.41 ± 0.33	decreases tumour C38 mass in comparison with control					TGI ([8]; 18 day of experiment): 47%; TGI ([8]; 29 day of experiment): 35%; Tumours MEAN ± SD ([8]; 29 day of experiment): 1.65 ± 1.39 g
C=C1/C(=C\C=C2/CCC[C@]3(C)[C@@H]([C@H](C)CC[C@@H](O)C(C)C)CC[C@@H]23)C[C@@H](O)C[C@@H]1O [PRI-2191, 1,24(R)-dihydroxycholekalciferol]	16	0.88 ± 0.49	inhibits 38C tumours growth in the last four measurements	16	2.19 ± 1.51	did not influence tumour mass	52	44	inhibits C38 tumour growth only in two last measurements	+++	+++	+++	+++	+++	0.75 ± 0.32	does not influence tumour mass	decreases in statistically significant manner volume of tumours also in comparison with 5-FU	influences significantly tumour mass in comparison with capecitabine alone	a synergistic effect is seen mainly in the last days of the experiment	influences significantly also tumour mass in comparison with 5-FU alone	body mass of mice treated with 5-FU in combination with vitamin D analogue, versus 5-FU alone [9]: increased loss of body mass; calcium level in blood serum of mice [10]: calcium level increases in statistically significant degree; type of interaction in inhibition of HT-29 tumour growth [2]: synergism; C38 tumour mass, combination with 5-FU in comparison with 5-FU [3]: in a statistically significant manner decreases tumour mass also in comparison with 5-FU; metastases in regional lymph nodes (intensity of fluorescence), combined treatment with 5-FU [11]: increased anti-metastatic action; metastases in regional lymph nodes (fluorescence) versus control mice [11]: did not differ significantly
C=C1/C(=C\C=C2/CCC[C@]3(C)[C@@H]([C@H](C)/C=C/[C@@H](O)C4CC4)CC[C@@H]23)C[C@@H](O)C[C@@H]1O [PRI-2201, (1S,3R,5Z,7E,22E,24S)-24-cyclopropyl-9,10-secochola-5,7,10(19),22-tetraeno-1,3,24-triol]										+++	+++	+++	+++	+++							lesser influence on calcium metabolism than calcitriol [12]: 100-200 fold
C=C1/C(=C/C=C2\CCC[C@]3(C)[C@@H]([C@H](C)/C=C/[C@@H](O)C4CC4)CC[C@@H]23)C[C@@H](O)C[C@@H]1O [PRI-2205, (1S,3R,5E,7E,22E,24S)-24-cyclopropyl-9,10-secochol-5,7,10(19),22-tetraeno-1,3,24-triol]	29	1.06 ± 0.84	inhibits C38 tumours growth from 18 to 28 day of measurement	31	1.88 ± 0.78	did not influence tumour mass	2	0	does not influence tumour mass	+++	+++	+++	+++	+++	0.81 ± 0.60	does not influence tumour mass	decreases in statistically significant manner volume of tumours also in comparison with 5-FU	influences significantly tumour mass in comparison with capecitabine alone	synergism	influences significantly also tumour mass in comparison with 5-FU alone	type of interaction in inhibition of HT-29 tumour growth [2]: synergism; influence on survival time of mice treated with 5-FU ([3]; C38, analogue added to 5-FU, p<0.05): prolongs survival of mice treated with 5-FU; ILS Effect ([3]; C38, combination with 5-FU, survival time): synergistic; C38 tumour mass, combination with 5-FU in comparison with 5-FU [3]: in a statistically significant manner decreases tumour mass also in comparison with 5-FU; metastases in regional lymph nodes (intensity of fluorescence), combined treatment with 5-FU [11]: did not influence the metastatic process; metastases in regional lymph nodes (fluorescence) versus control mice [11]: did not differ significantly
